Reference: US20200032347A1, “RNA profiling for individualized diet and treatment advice” (Stichting Katholieke Universiteit, priority 2017, published 2020)

What was measured:
SKRC-17 cells = test: Cell proliferation assay (SRB, cellular protein content); format: cell-based, human; conditions: proliferation assays
Procedure: (§1) Cellular protein content was determined as a measure of cell proliferation, using suforhodamine B (SRB) assays as described in (83). Sensitivity to EGCG was determined by adding a concentration range of EGCG (0-50 μM) or DMSO solvent one day after seeding 1,000 cells per well in 96-wells plates (Nunc, Roskilde, Denmark). An SRB assay was performed after 3 days, and IC50 values were determined in GraphPad Prism using the sigmoidal dose response with variable slope nonlinear regression analysis.
(§2) Furthermore cell proliferation over 8 days in presence or absence of EGCG was determined. Cells were seeded at 1,000 cells per well and at day 1 and day 5 after seeding the medium was changed for medium with or without 10 μM EGCG. Controls were incubated with DMSO. Protein content was determined every 2 days. Experiments were performed in triplicate and statistical significance was determined using one-way ANOVA with bonferroni correction.

SKRC-7 cells = test: as above; format: cell-based, human; conditions: proliferation assays
Procedure: as §1, §2

Structure (SMILES): NC(=O)c1ccc(N)nc1 [Compound 6-AN, 6-aminonicotinamide]
- cell proliferation response (SKRC-17 cells): significantly decreased cell proliferation
- cell proliferation response (SKRC-7 cells): increase of cell proliferation
